Results: US6495544B2, “Homoiminopiperidinyl hexanoic acid inhibitors of inducible nitric oxide synthase” (Pharmacia Corporation, priority 2000, dated 2002)
pIC50: −log10 of the molar value.

Columns and labels:
[1] = tested on: inducible nitric oxide synthase; test: In vivo assay, endotoxin-treated rats, plasma nitrite/nitrate; settings: oral; for ED50: Rattus norvegicus, read-out: ED50, inhibition of LPS-induced increase in plasma nitrite/nitrate
Experimental: Compounds are administered orally 0.5-1 hours prior to LPS administration and plasma nitrite/nitrate levels are determined 5 hours following LPS administration.

[2] = target: T1, human endothelial constitutive NOS (hecNOS) (Homo sapiens, UniProt P29474); test: Citrulline assay for nitric oxide synthase, hecNOS; format: biochemical; settings: 30 μM L-arginine, 37° C., 15 minutes, calmodulin
T1 construct: made in house; host or cells: Sf9 insect cells, baculovirus vector
Experimental: (§1) Nitric oxide synthase (NOS) activity is measured by monitoring the conversion of [^3H]-arginine to [^3H]-citrulline (Bredt and Snyder, Proc. Natl. Acad. Sci. U.S.A., 87, 682-685, 1990 and Misko et al, Eur. J. Pharm., 233, 119-125, 1993). Human inducible NOS (hiNOS), human endothelial constitutive NOS (hecNOS) and human neuronal constitutive NOS (hncNOS) are each cloned from RNA extracted from human tissue. The cDNA for human inducible NOS (hiNOS) is isolated from a lambda cDNA library made from RNA extracted from a colon sample from a patient with ulcerative colitis. The cDNA for human endothelial constitutive NOS (hecNOS) is isolated from a lambda cDNA library made from RNA extracted from human umbilical vein endothelial cells (HUVEC) and the cDNA for human neuronal constitutive NOS (hncNOS) is isolated from a lambda cDNA library made from RNA extracted from human cerebellum obtained from a cadaver. The recombinant enzymes are expressed in Sf9 insect cells using a baculovirus vector (Rodi et al, in The Biology of Nitric Oxide , Pt. 4: Enzymology Biochemistry and Immunology; Moncada, S., Feelisch, M., Busse, R., Higgs, E., Eds.; Portland Press Ltd.: London, 1995; pp 447-450). Enzyme activity is isolated from soluble cell extracts and partially purified by DEAE-Sepharose chromatography. To measure NOS activity, 10 μL of enzyme is added to 40 μL of 50 mM Tris (pH 7.6) in the presence or absence of test compounds and the reaction initiated by the addition of 50 μL of a reaction mixture containing 5 mM Tris (pH 7.6), 2.0 mg/mL bovine serum albumin, 2.0 mM DTT, 4.0 mM CaCl2, 20 μM FAD, 100 PM tetrahydrobiopterin, 0.4-2.0 mM NADPH and 60 μM L-arginine containing 0.9 μCi of L-[2,3-^3H]-arginine. The final concentration of L-arginine in the assay is 30 μM. For hecNOS or hncNOS, calmodulin is included at a final concentration of 40-100 nM. […] [3H]-Citrulline is separated by chromatography on Dowex 50W X-8 cation exchange resin and radioactivity determined with a liquid scintillation counter. […]

hncNOS = target: T2, hncNOS (Homo sapiens, UniProt P29475); test: Assay for time dependent inhibition, hncNOS; format: biochemical; settings: 60 min preincubation
T2 construct: made in house; host or cells: Sf9 insect cells, baculovirus vector
Experimental: as §1

[3] = target: T3, human neuronal constitutive NOS (hncNOS) (Homo sapiens, UniProt P29475); test: Citrulline assay for nitric oxide synthase, hncNOS; format: biochemical; settings: 30 μM L-arginine, 37° C., 15 minutes, calmodulin
T3 construct: made in house; host or cells: Sf9 insect cells, baculovirus vector
Experimental: as §1

[4] = tested on: nitric oxide synthase induced by recombinant human IL-1β in human cartilage explants; test: Human cartilage explant assay, nitrite production; format: cell-based; settings: IL-1β stimulated, read-out: IC50, inhibition of nitrite production
Experimental: Bone pieces are rinsed twice with Dulbecco's Phosphate Buffered Saline (GibcoBRL) and once with Dulbecco's Modified Eagles Medium (GibcoBRL) and placed into a petri dish with phenol red free Minimum Essential Medium (MEM) (GibcoBRL). Cartilage was cut into small explants of approximately 25-45 mg in weight and one or two explants per well are placed into 48 well culture plates with 500 μL of culture media per well. The culture media was either a custom modification of Minimum Essential Medium(Eagle) with Earle's salts (GibcoBRL) prepared without L-Arginine, without L-Glutamine and without phenol red or a custom modification of serumless Neuman and Tytell (GibcoBRL) medium prepared without L-arginine, without insulin, without ascorbic acid, without L-glutamine and without phenol red. Both are supplemented before use with 100 μM L-Arginine (Sigma), 2 mM L-glutamine, 1×HL-1 supplement (BioWhittaker), […] ascorbic acid (Sigma) and 150 pg/ml recombinant human IL-1β (RD Systems) to induce nitric oxide synthase. Compounds are then added in 10 μL aliquots and the explants incubated at 37° C. with 5% CO2 for 18-24 hours. […] This supernatant is analyzed for nitrite with a fluorometric assay (Misko et al, Anal. Biochem., 214, 11-16, 1993). […] IC50 values (Table III) are determined from plotting the percent inhibition of nitrite production at six different concentrations of inhibitor.

[5] = target: T4, Human inducible NOS (hiNOS) (Homo sapiens, UniProt P35228); test: Citrulline assay for nitric oxide synthase, hiNOS; format: biochemical; settings: 30 μM L-arginine, 37° C., 15 minutes
T4 construct: made in house; host or cells: Sf9 insect cells, baculovirus vector
Experimental: as §1

hecNOS = target: T5, hecNOS (Homo sapiens, UniProt P29474); test: Assay for time dependent inhibition, hecNOS; format: biochemical; settings: 60 min preincubation, read-out: % inhibition of NOS activity, hecNOS
T5 construct: made in house; host or cells: Sf9 insect cells, baculovirus vector
Experimental: as §1, with “447-450).” for “447-450). Enzyme activity is isolated from soluble cell extracts and partially purified by DEAE-Sepharose chromatography. To measure NOS activity, 10 μL of enzyme is added to 40 μL of 50 mM Tris (pH 7.6) in the presence or absence of test compounds and the reaction initiated by the addition of 50 μL of a reaction mixture containing 5 mM Tris (pH 7.6), 2.0 mg/mL bovine serum albumin, 2.0 mM DTT, 4.0 mM CaCl2, 20 μM FAD, 100 PM tetrahydrobiopterin, 0.4-2.0 mM NADPH and 60 μM L-arginine containing 0.9 μCi of L-[2,3-^3H]-arginine. The final concentration of L-arginine in the assay is 30 μM. For hecNOS or hncNOS, calmodulin is included at a final concentration of 40-100 nM.”

[6] = 0.5-1 hours prior to LPS, plasma 5 hours after LPS

T2 sequence (P29475 whole entry): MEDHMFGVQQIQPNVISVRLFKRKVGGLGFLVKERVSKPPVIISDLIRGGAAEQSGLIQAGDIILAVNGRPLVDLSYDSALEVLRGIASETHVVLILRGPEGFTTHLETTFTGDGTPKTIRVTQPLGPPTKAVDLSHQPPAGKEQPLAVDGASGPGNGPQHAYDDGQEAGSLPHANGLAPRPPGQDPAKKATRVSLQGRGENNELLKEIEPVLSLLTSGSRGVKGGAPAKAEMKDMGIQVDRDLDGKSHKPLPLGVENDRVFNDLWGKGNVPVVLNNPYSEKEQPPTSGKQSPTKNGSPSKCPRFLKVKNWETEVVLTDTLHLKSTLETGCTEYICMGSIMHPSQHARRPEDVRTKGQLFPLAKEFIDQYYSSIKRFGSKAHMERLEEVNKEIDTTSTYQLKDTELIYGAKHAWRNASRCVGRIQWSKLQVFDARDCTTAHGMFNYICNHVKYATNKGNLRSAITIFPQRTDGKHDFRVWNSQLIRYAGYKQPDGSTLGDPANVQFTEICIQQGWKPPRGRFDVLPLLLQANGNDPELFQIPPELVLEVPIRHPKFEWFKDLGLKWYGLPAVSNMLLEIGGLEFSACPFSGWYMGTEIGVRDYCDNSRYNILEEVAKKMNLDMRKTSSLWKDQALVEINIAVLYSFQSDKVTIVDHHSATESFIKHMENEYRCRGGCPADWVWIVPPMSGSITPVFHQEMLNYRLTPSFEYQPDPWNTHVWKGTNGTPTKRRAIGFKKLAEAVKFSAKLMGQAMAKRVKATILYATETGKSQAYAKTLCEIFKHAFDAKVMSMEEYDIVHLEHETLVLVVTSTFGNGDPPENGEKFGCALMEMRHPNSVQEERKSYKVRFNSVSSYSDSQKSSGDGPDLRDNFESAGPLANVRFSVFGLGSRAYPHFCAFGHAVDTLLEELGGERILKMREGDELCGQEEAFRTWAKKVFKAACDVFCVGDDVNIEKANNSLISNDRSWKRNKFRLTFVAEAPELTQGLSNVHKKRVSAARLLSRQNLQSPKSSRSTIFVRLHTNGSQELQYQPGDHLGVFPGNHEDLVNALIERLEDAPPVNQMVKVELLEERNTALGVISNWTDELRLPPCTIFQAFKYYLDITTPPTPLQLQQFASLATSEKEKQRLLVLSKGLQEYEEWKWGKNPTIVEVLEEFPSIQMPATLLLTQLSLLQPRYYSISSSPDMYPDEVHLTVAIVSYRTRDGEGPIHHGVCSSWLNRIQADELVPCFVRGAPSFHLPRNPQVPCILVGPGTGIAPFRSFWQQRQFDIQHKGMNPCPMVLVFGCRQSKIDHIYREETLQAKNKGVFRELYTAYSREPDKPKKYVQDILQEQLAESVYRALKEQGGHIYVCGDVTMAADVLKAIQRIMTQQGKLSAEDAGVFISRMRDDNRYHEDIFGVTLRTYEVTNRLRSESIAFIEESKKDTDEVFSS
T5 sequence (P29474 2-1203): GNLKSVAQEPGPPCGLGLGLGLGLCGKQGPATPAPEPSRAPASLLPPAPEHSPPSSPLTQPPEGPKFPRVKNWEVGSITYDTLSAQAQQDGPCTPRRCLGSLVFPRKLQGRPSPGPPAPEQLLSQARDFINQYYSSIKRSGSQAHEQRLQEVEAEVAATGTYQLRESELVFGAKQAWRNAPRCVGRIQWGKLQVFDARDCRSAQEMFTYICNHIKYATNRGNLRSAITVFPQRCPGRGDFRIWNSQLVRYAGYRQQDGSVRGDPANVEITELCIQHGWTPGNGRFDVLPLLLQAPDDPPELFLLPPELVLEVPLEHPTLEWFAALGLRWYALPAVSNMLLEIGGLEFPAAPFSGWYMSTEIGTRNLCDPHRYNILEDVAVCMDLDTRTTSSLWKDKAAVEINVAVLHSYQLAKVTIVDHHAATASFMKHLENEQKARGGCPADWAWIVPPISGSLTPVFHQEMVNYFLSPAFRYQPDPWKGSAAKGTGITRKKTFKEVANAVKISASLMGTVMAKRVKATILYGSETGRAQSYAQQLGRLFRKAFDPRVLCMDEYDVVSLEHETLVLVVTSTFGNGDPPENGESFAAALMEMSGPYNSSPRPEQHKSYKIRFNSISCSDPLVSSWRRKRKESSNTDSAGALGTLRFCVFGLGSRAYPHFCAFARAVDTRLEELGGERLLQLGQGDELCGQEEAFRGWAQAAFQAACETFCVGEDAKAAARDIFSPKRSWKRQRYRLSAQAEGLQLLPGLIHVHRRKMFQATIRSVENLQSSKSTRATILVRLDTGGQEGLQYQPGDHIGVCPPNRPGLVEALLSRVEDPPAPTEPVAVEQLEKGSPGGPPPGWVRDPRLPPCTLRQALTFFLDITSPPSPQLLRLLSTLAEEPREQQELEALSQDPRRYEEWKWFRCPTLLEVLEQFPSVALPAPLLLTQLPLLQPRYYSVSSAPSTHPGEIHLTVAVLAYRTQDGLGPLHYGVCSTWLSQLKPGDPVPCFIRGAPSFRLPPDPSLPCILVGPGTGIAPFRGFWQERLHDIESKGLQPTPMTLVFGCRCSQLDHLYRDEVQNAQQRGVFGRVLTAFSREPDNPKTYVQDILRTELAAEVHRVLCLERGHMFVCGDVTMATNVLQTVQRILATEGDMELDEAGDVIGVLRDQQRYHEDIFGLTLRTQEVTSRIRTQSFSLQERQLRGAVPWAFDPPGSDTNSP

| Structure (SMILES) | ED50 [1, 6] [mg/kg] | effect on LPS-induced increase in plasma nitrite/nitrate levels [1] | ED50, inhibition of LPS-induced increase in plasma nitrite/nitrate ([1]; 0.5-1 hours prior to LPS, plasma 5 hours after LPS, trihydrate hydrochloride) [mg/kg] | pIC50 [2] | % inhibition of NOS activity, hncNOS (hncNOS; 5 μM) [% @ 5 μM @ 60 min] | pIC50 [3] | pIC50 [4] | pIC50 [5] | inhibition at 33 µM (hecNOS) [%] | % inhibition of NOS activity, hncNOS (hncNOS; 13 μM) [% @ 13 μM @ 60 min] | % inhibition of NOS activity, hncNOS (hncNOS; 3 μM) [% @ 3 μM @ 60 min] |
| --- | --- | --- | --- | --- | --- | --- | --- | --- | --- | --- | --- |
| Cl.N=C1CCCC[C@H](CCCC[C@@H](N)C(=O)O)N1.O.O.O [Example 1, (αR,2S)-α-aminohexahydro-7-imino-1H-azepine-2-hexanoic acid, trihydrate hydrochloride] | < 3 | inhibited the LPS-induced increase in plasma nitrite/nitrate levels in a dose dependent manner | <3 | < 4.52 | 0 | < 5.52 | > 5.00 | > 5.52 | 11 |  |  |
| Cl.N=C1CCCC[C@@H](CCCC[C@H](N)C(=O)O)N1.O.O.O [Example 2, (αS,2R)-α-aminohexahydro-7-imino-1H-azepine-2-hexanoic acid, trihydrate hydrochloride] |  |  |  | < 3.82 |  | < 5.00 |  | > 5.30 |  | 0 |  |
| Cl.N=C1CCCC[C@H](CCCC[C@H](N)C(=O)O)N1.O.O.O [Example 4, (αS,2S)-α-aminohexahydro-7-imino-1H-azepine-2-hexanoic acid, trihydrate hydrochloride] | < 5 |  |  | < 4.82 |  | < 5.52 | > 5.00 | > 5.52 |  |  | 0 |
